The values below come from patent publication US20070276032A1, “Use of 8-Prenylnaringenin for Hormone Replacement Therapy” (priority 2003, published 2007).

Assay [1] concerns ovariectomized rats. Kind of assay: Ex vivo BMD (pQCT) of proximal tibia, 2S(−) 8-PN in ovariectomized rats (Example 3). The settings on record: animal study with synthetic relatively pure preparation. More on the design: species or system Sprague-Dawley rats. Here is the method:
(§1) The aim of the study was to examine bone and uterine effects of a 4-week treatment with 2S(−) 8-Prenylnaringenin (8-PN) in 3-month-old ovariectomized rats. […] At the end of the study, uterine weight and ex vivo bone mineral density (BMD) of tibia were measured.
(§2) A total of 30 female 13-14-week-old Sprague-Dawley rats were used in the study. The animals were randomized into 5 groups, with 6 rats/group. Group 1 was sham-operated (SHAM) and groups 2-5 were ovariectomized (OVX).
(§3) Treatments with the vehicle or test substance started on the day following operation. […] The animals were sacrificed one day after the last dosing. At the end of the study, left tibiae were excised for ex vivo BMD measurement (pQCT) at proximal tibia and uteri were excised for the determination of absolute and relative weights. In addition, samples for the determination of 2S(−)8-Prenylnaringenin concentration were taken from all dosing solutions on the day when they were prepared and on the last day of use. The data of body weights, relative uterine weights and BMD were analyzed with one-way analysis of variance.
Bone mineral density measurement was carried out by pQCT (XCT-960A, Stratec, Germany). The bone specimens were thawed before measurement. Six 1 mm-thick sections of the proximal tibia (2 mm below the epiphyseal growth plate) were scanned at 0.5 mm intervals using a voxel size of 0.148 mm. Total and trabecular BMD (mg/cm^3) were measured. After bone densitometry, the specimens were wrapped back to saline saturated gauzes and stored at −20° C.

In assay [2] the test system is ovariectomized rats. Kind of assay: Relative uterine weight, 2S(−) 8-PN in ovariectomized rats (Example 3). The assay is classed as in vivo, Sprague-Dawley rats. Here is the method: as §1, §2, §3
Relative uterine weight was calculated as percentage of body weight

The subject of assay [3] is ovariectomized rats. Kind of assay: Trabecular density of proximal tibia, 8-PN racemic, 2S(−) 8-PN and estradiol hemihydrate in ovariectomized rats (Example 4). The settings on record: OVX rats; s.c. 28 days; 20 mg/kg/d in HP-β-CD. Type of assay: in vivo, Sprague-Dawley rats. Here is the method: (§4) The aim of the study was to directly compare the effects of Prenylnaringenin (racemate) and 2S(−) 8-Prenylnaringenin to the effects of estradiol hemihydrate on bone mineral density and uterine weight on 3-month-old ovariectomized rats using identical formulations. In addition, the effects of estradiolhemihydrate in two vehicles (oily, aqueous) were examined for influence of formulations. The substances were administered subcutaneously(s.c.) seven days a week beginning the day after ovariectomy. At the end of the study, uterine weight and bone mineral density (BMD) of tibia were measured.
(§5) Forty-one female Sprague-Dawley rats, 12-14 weeks of age were randomized into six groups, 6-8 animals in each. Five groups were ovariectomized (OVX) and one group was sham-operated (SHAM). Treatments started on the day following operation and continued for 28 days. The animals were treated s.c. once a day seven times a week as follows. Group 1 (SHAM vehicle group) and group 2 (OVX vehicle group) were given the vehicle 30% hydroxypropyl-β-cyclodextrin (HP-β-CD). Groups 3 and 4 were administered 4 μg/kg/d of estradiol hemihydrate in vehicle benzyl benzoate/ricinus oil (B/R) and in vehicle HP-β-CD, respectively. Groups 5 and 6 were given 20 mg/kg/d of 2S(−)8-Prenylnaringenin and racemic 8-Prenylnaringenin, respectively, both in vehicle HP-β-CD. At the end of the study, left tibiae were excised for the ex vivo BMD […] were taken from all dosing solutions on the first and last day of use.
(§6) Vehicle 1 (used in the groups 1 and 2): 30% hydroxypropyl-β-cyclodextrin and 0.3% NaCl (w/v), 5% ethanol (v/v) in Aqua sterilisata, pH 7.4.
(§7) Vehicle 2 (used when preparing dosing solutions of the groups 4, 5 and 6): 30% hydroxypropyl-β-cyclodextrin and 0.3% NaCl (w/v) in Aqua sterilisata, pH 7.4.
(§8) Vehicle 3 (used when preparing a dosing solution of the group 3): benzyl benzoate/ricinus oil (B/R) 1+4, v/v.

Assay [4] has as its system ovariectomized rats. Kind of assay: Relative uterus weight, 8-PN racemic, 2S(−) 8-PN and estradiol hemihydrate in ovariectomized rats (Example 4). Type of assay: in vivo, Sprague-Dawley rats. The settings on record: OVX rats. Here is the method: as §4, §5, §6, §7, §8
The nature of assay [5]: Body weight, 8-PN racemic, 2S(−) 8-PN and estradiol hemihydrate in ovariectomized rats (Example 4). The assay is classed as in vivo, Sprague-Dawley rats. The settings on record: OVX rats; s.c. once a day, 28 days; 20 mg/kg/d in HP-β-CD. The method, then:
as §4, §5, §6, §7, §8

The next assay has as its system ERE-Luc. Kind of assay: Estrogenic activity in the estrogen reporter mouse ERE-Luc model, luciferase activity in organs (Example 5). The assay is classed as in vivo, mice. Here is the method: In order to avoid experimental noise male animals were used.
Fourtyfive heterozygous male ERE-Luc mice of two months of age were fed with soy-free diet for two weeks before assigning them to each experimental group then all the mice were injected intraperitoneally (i.p.) with 250 μl of an oily solution containing the following compounds: • 1. Experimental group 1: vehicle • 2. Experimental group 2: 17β-estradiol at 1.5 μg/kg • 3. Experimental group 3: 2S(−)-8-PN at 30 mg/kg • 4. […] Experimental group 5: genistein at 30 mg/kg.
The treatment was carried out in experimental groups of three mice each and repeated three times (therefore numbers reflect the average of […] determinations on a total of 9 animals).
Six hours after the injection, mice were sacrificed by cervical dislocation and organs were dissected and frozen on dry ice. The following organs were analyzed for lucifererase activity by enzymatic assay: prostate, liver, bone, brain.
Data represent means ±standard deviation of N=9 animals per group.
Analysis of variance (ANOVA) for overall comparison was followed by Tukey test for paired comparisons. All statistical procedures were carried out with Systat and SAS (*P<0.05; **P<0.01).

The conditions of assay [6]: reported; cited from earlier work.
The conditions of assay [7]: at the bone loss protective dose; Miyamoto et al 1998; cited from earlier work.
Setting [8] is: s.c. 28 days, 20 mg/kg/d in HP-β-CD, calculated as percentage of body weight.

Values joined by “and” are separate entries in the source; they are usually repeats but may differ in a detail not shown here. Equal entries are not always repeated.

Turning to `CC(C)=CCc1c(O)cc(O)c2c1OC(c1ccc(O)cc1)CC2=O` (racemic) [8-Prenylnaringenin, 5,7-Dihydroxy-2-(4-hydroxyphenyl)-8-(3-methylbut-2-enyl)-chroman-4-on], in the assay on ovariectomized rats [1], the “effect on bone loss” value is listed as “prevents bone loss in a dose dependent manner”. In addition, in the assay with ovariectomized rats [2] (animal study with synthetic relatively pure preparation), the “effect on uterus growth and endometrial stimulation” value was “only a minimal and dose independent effect on uterus growth and endometrial stimulation”. Moreover, the “effect on uterus proliferation relative to that of estradiol” value with ovariectomized rats [2] (doses equi-effective on protection of bone loss) was “less than ⅕ and 1/10”. For the same compound, the “estrogenic effect on the uterus, equivalent oral estradiol dose” value with ovariectomized rats [2] (extended to women treated with a bone protective dose) lay within 0.1 to 0.2 mg/day. In the assay with ovariectomized rats [3], the “Trabecular density at left proximal tibia, Mean” value stood at 351 mg/cm3 and the “Trabecular density at left proximal tibia, Median” value was 351 mg/cm3. For the same compound, in the assay on ovariectomized rats [4] (20 mg/kg/d vs estradiol 4 μg/kg/d, same bone effective dose), the “effect on the uterus and body weight compared with estradiol in the same vehicle (HP-β-CD)” value is “much lower effect on the uterus and body weight than estradiol at the same bone effective dose”. Moreover, in the assay with ovariectomized rats [4] (setting [8]), the “Relative uterus weight, Mean” value is recorded as 0.066 and the “Relative uterus weight, Median” value is listed as 0.065. For the same compound, in assay [5], the “Body weight at The end (bw4b)” value is given as 289(8) g and the “The change in Body weight (bw4b-bw0)” value is 27(2) g. Moreover, in the assay with ERE-Luc (estimated at dosages leading to the same liver estrogenicity), the “estrogenic effect in bone and prostate tissue relative to estradiol” value was “twofold higher estrogenic effect in bone and prostate tissue than estradiol”. In the assay on ERE-Luc (male ERE-Luc mice, i.p. 30 mg/kg, six hours after the injection, controls 0.5), the “Luciferase activity, Prostate” value is 0.9 ** arbitrary units. The “estrogenic activity relative to genistein” value in assay [6] is on record as “at least one order of magnitude higher than that of the isoflavone genistein”. Further, the “effect on uterus growth” value in assay [7] is “significant effect on uterus growth at the bone loss protective dose”.
